Results: PMC5708334, “Synthesis of kinase inhibitors containing a pentafluorosulfanyl moiety” (Organic & Biomolecular Chemistry, 2017)

Assays:
[1] = target: FLT-4 (h) (VEGFR3) (Homo sapiens, UniProt P35916); assay: Biochemical kinase assay (CEREP); details: for IC50: 10 μM ATP, performed by CEREP
Protocol: We tested all synthetic compounds against a panel of kinases in a biochemical assay. Each data point was measured in duplicate (technical replicates). […] Additional kinase binding studies were performed vs. a select group of functionally and structurally divergent kinases including AAK1 (Adaptor-associated protein kinase 1), BMP2K (BMP-2-inducible protein kinase, where BMP is bone morphogenic protein), GAK (Cyclin G-associated kinase) and STK16 (Serine/threonine-protein kinase 16) (Table 1).

[2] = target: T1, DYRK3 (h) (Homo sapiens, UniProt O43781); assay: Biochemical kinase assay (CEREP); details: for IC50: 10 μM ATP, performed by CEREP
T1 sequence (O43781 1-588): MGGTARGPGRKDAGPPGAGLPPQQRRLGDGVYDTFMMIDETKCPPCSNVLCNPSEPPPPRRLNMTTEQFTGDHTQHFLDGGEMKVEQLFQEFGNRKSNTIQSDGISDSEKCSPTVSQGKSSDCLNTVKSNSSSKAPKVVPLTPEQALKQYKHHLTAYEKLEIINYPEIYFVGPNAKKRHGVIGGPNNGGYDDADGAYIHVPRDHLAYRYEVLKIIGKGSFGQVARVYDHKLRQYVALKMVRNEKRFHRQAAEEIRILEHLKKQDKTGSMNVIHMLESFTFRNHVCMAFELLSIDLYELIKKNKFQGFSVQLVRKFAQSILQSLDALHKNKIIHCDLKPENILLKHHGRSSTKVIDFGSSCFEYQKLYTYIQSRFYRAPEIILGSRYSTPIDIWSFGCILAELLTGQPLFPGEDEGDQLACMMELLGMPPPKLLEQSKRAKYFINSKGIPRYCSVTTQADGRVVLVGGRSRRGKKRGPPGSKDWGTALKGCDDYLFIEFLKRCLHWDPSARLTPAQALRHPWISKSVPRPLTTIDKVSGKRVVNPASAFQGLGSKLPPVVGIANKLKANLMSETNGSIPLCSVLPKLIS

[3] = target: PDGFRα (h) (Homo sapiens, UniProt P16234); assay: Biochemical kinase assay (CEREP); details: for IC50: 10 μM ATP, performed by CEREP
[4] = target: T2, GAK (Cyclin G-associated kinase) (Homo sapiens, UniProt O14976); assay: Kinase binding displacement assay; details: no ATP present
T2 sequence (O14976 1-1311): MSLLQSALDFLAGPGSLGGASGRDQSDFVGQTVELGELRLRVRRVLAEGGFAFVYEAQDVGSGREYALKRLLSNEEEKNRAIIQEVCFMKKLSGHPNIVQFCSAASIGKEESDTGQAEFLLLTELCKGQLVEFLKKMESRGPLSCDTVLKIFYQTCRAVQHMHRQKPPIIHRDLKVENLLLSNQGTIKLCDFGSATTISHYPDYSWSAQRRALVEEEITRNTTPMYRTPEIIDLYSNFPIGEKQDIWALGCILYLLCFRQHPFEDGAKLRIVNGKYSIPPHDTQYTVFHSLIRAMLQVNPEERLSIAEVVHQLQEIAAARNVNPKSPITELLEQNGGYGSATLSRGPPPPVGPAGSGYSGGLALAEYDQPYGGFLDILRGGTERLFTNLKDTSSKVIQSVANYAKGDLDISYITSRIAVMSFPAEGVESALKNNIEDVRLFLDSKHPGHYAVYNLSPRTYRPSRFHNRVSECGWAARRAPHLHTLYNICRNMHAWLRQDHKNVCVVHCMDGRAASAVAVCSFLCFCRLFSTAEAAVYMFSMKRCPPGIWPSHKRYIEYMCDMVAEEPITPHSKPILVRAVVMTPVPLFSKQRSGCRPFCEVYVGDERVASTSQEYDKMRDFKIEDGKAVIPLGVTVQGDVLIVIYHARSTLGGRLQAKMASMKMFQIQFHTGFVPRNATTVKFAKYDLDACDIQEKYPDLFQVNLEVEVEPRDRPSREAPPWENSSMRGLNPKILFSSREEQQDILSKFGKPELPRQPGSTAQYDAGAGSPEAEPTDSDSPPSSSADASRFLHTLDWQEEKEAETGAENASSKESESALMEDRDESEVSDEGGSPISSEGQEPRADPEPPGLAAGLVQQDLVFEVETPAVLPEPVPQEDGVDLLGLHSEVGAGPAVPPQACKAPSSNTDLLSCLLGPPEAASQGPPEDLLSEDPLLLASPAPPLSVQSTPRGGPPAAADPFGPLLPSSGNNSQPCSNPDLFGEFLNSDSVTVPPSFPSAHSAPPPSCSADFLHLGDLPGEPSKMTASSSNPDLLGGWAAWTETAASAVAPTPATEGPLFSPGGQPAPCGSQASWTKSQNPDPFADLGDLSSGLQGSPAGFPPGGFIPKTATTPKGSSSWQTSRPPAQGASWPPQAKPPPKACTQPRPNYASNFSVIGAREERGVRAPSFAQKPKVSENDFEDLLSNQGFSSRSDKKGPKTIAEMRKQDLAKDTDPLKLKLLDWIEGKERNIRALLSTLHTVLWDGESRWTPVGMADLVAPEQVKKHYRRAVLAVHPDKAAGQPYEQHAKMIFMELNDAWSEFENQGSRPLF

[5] = tested on: MCF7 and T47D breast cancer cell; assay: Cell proliferation assay (range over both lines); format: cell-based; details: range over both compounds and both cell lines; read-out: GC50 values, MCF7 and T47D (range)
From the text: (§1) The synthesized compounds were next tested in breast cancer and non-transformed breast cell lines.

[6] = target: BMP2K (BMP-2-inducible protein kinase) (Homo sapiens, UniProt Q9NSY1); assay: Kinase binding displacement assay; details: no ATP present
[7] = tested on: MCF7; assay: Cell proliferation assay; format: cell-based; details: Homo sapiens, 50% reduction in cellular proliferation vs DMSO-treated control, read-out: GC50 MCF7
From the text: as §1

[8] = tested on: T47D; assay: Cell proliferation assay; format: cell-based; details: Homo sapiens, 50% reduction in cellular proliferation vs DMSO-treated control, read-out: GC50 T47D
From the text: as §1

[9] = target: AAK1 (Adaptor-associated protein kinase 1) (Homo sapiens, UniProt Q2M2I8); assay: Kinase binding displacement assay; details: no ATP present
[10] = target: STK16 (Serine/threonine-protein kinase 16) (Homo sapiens, UniProt O75716); assay: Kinase binding displacement assay; details: no ATP present
Sequence of STK16 (Serine/threonine-protein kinase 16) (O75716 whole entry, species assumed): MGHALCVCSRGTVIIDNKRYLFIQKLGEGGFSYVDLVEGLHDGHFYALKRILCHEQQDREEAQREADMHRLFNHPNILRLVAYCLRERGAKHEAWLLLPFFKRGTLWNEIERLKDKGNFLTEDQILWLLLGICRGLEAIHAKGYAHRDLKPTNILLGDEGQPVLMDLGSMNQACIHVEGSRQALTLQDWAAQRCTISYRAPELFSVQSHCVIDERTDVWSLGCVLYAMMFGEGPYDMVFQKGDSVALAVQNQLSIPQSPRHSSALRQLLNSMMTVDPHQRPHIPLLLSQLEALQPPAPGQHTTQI

Sequence of PDGFRα (h) (P16234 24-1089): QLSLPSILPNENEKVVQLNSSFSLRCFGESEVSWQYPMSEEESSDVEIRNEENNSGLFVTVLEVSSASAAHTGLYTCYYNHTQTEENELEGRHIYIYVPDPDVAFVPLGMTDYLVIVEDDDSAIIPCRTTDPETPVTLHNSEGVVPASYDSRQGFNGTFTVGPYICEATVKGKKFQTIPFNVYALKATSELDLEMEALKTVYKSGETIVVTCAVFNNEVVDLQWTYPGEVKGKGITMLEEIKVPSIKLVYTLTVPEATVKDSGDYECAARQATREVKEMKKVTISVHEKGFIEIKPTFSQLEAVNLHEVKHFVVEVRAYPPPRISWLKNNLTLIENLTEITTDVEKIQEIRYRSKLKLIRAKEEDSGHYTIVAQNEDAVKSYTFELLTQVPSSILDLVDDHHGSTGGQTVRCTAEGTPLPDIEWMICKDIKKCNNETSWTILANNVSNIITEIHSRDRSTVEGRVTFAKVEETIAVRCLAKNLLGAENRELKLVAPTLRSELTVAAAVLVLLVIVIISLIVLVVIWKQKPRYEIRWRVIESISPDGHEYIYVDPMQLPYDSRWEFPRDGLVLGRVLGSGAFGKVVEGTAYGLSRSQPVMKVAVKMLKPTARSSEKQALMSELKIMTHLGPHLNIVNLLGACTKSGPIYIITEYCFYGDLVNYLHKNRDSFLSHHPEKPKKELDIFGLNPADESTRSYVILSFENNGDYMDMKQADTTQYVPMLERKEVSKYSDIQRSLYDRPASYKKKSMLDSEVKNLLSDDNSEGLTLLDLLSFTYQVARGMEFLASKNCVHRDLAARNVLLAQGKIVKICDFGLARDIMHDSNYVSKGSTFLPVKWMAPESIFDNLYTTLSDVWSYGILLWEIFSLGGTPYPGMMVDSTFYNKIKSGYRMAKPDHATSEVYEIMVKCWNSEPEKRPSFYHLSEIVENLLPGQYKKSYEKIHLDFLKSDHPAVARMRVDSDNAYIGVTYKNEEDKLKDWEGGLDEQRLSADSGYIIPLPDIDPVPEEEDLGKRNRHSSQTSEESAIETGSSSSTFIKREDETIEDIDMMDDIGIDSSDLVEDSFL
Sequence of BMP2K (BMP-2-inducible protein kinase) (Q9NSY1 whole entry, species assumed): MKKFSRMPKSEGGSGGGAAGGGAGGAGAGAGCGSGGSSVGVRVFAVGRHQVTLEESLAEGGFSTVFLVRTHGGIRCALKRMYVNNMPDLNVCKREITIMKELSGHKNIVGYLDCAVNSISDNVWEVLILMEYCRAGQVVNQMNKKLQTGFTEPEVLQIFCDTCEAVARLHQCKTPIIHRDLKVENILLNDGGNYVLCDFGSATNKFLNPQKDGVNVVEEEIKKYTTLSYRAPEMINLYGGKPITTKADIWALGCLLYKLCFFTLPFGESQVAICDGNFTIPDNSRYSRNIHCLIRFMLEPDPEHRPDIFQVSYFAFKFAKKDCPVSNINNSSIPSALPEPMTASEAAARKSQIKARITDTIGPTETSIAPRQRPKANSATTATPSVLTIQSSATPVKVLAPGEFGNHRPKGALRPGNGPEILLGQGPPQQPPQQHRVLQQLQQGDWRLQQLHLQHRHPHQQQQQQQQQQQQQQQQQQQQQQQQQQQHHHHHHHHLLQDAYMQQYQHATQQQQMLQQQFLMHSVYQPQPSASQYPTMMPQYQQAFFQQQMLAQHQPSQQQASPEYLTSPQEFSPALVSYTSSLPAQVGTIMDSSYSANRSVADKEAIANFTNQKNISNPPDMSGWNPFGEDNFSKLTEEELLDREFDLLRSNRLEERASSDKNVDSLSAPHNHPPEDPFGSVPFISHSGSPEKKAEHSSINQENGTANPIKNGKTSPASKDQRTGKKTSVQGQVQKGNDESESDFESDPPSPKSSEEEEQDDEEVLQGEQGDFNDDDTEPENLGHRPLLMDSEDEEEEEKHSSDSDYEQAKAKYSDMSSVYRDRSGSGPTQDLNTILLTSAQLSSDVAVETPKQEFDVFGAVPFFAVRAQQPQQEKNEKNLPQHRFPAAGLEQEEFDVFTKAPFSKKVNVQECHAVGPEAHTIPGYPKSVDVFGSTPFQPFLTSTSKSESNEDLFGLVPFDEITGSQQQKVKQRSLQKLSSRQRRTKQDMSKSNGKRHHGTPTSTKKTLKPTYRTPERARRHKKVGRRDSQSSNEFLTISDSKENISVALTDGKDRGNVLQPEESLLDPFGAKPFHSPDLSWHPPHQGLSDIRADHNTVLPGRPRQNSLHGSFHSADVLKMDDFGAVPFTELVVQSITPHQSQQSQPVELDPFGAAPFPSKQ
Sequence of FLT-4 (h) (VEGFR3) (P35916 25-1363): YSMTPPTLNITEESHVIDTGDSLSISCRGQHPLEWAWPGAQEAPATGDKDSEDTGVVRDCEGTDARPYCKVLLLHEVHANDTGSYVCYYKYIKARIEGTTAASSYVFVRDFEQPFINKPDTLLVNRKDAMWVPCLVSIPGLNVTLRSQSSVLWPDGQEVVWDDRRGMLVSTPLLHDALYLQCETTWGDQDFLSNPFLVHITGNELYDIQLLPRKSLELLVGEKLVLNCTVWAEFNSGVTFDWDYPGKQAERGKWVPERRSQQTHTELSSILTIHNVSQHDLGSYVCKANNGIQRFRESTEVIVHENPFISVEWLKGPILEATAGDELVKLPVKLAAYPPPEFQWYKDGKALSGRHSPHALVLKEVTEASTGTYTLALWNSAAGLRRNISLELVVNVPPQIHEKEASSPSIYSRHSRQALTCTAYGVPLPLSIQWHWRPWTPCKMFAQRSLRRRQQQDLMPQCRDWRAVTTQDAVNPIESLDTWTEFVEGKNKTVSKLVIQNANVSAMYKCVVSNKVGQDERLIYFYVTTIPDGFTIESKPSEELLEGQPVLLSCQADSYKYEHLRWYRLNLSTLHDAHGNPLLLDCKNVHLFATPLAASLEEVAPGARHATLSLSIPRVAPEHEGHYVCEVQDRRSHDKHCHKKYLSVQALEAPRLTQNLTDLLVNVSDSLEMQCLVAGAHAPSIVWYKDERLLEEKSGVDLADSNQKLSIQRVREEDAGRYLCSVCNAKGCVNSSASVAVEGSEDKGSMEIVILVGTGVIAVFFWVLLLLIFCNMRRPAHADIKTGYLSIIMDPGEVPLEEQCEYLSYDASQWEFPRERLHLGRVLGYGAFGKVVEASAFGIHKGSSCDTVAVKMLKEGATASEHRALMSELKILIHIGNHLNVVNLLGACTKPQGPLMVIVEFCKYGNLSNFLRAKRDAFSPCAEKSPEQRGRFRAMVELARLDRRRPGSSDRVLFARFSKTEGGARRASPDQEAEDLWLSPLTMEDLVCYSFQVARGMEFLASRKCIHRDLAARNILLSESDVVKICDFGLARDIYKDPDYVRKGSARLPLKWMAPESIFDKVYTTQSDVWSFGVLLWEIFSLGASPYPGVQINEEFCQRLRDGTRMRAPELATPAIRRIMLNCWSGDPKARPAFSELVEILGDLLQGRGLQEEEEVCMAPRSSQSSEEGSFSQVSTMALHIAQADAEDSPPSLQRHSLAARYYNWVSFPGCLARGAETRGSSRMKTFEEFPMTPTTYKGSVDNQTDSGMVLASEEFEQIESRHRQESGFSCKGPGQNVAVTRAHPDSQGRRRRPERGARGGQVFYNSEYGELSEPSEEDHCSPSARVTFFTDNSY
Sequence of AAK1 (Adaptor-associated protein kinase 1) (Q2M2I8 whole entry, species assumed): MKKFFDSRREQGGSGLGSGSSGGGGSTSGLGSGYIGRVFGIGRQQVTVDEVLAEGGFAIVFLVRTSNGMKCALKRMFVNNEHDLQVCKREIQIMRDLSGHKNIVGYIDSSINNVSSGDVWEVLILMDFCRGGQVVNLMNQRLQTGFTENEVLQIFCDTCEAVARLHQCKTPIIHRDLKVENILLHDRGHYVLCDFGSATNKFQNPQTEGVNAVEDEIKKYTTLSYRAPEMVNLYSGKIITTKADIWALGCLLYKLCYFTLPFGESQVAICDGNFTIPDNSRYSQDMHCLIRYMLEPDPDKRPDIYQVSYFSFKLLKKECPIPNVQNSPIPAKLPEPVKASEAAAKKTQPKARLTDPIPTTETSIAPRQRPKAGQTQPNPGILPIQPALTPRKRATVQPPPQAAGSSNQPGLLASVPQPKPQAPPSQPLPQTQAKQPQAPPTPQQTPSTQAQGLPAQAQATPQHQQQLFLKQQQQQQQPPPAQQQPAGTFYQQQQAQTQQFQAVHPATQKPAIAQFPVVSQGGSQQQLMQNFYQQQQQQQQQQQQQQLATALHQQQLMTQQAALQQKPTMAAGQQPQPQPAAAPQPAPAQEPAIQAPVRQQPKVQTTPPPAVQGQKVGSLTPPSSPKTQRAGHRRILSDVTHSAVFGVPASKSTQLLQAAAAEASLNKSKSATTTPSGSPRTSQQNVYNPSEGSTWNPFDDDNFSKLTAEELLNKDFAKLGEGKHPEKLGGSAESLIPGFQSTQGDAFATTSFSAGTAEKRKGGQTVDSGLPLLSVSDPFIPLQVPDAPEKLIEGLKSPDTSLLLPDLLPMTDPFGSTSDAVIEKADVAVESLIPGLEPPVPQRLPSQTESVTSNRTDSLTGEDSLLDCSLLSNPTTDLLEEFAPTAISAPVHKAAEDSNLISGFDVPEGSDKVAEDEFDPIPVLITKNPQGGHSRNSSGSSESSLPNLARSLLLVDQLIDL

| Molecule | IC50 [1] | inhibition of DYRK3 [2] | IC50 [2] | IC50 [3] | IC50 [4] | IC50 [5] | IC50 [6] | IC50 [7] | IC50 [8] | IC50 [9] | IC50 [10] | potency vs. PDGFRα [3] | IC50 vs. VEGFR3 [1] | IC50 vs. PDGFRα [3] |
| --- | --- | --- | --- | --- | --- | --- | --- | --- | --- | --- | --- | --- | --- | --- |
| 5-Pentafluorosulfanyl-3-ferrocenylindolin-2-one [Compound 12b] | > 1 µM | low micromolar range | 2.4 µM | > 1 µM |  |  |  |  |  |  |  |  |  |  |
| O=C1Nc2ccc(S(F)(F)(F)(F)F)cc2/C1=C/c1ccc[nH]1 [Compound 10, (Z)-3-(1H-Pyrrol-2-yl)methylene-5-pentafluorosulfanylindoline-2-one] | > 1 µM |  | > 1 µM | > 1 µM | 34.2 µM | 0.35 to 3.8 µM | 0.452 µM | 4.8 ± 1 µM | 0.49 ± 0.4 µM | 1 µM | 17.6 µM |  |  |  |
| O=C1Nc2cc(S(F)(F)(F)(F)F)ccc2/C1=C/c1ccc[nH]1 [Compound 11, (Z)-3-(1H-Pyrrol-2-yl)methylene-6-pentafluorosulfanylindoline-2-one] | 0.23 µM |  | > 1 µM | 0.098 µM | 0.476 µM | 0.35 to 3.8 µM | 187 µM | 0.69 ± 0.4 µM | 0.35 ± 0.1 µM | 1000 µM | 135 µM | 0.098 µM |  |  |

Continued, values first:

| IC50 [1] | inhibition of DYRK3 [2] | IC50 [2] | IC50 [3] | IC50 [4] | IC50 [5] | IC50 [6] | IC50 [7] | IC50 [8] | IC50 [9] | IC50 [10] | potency vs. PDGFRα [3] | IC50 vs. VEGFR3 [1] | IC50 vs. PDGFRα [3] | Molecule |
| --- | --- | --- | --- | --- | --- | --- | --- | --- | --- | --- | --- | --- | --- | --- |
| > 1 µM | low micromolar range | 1.7 µM | > 1 µM |  |  |  |  |  |  |  |  |  |  | 5-Pentafluorosulfanyl-3-ferrocenylindolin-2-one [Compound 12a] |
| 0.53 µM |  | > 1 µM | > 1 µM | > 1 µM |  | > 1 µM |  |  | > 1 µM | > 1 µM |  |  |  | Cc1[nH]c(/C=C2\C(=O)Nc3ccc(S(F)(F)(F)(F)F)cc32)c(C)c1CCC(=O)O [Compound 13, (Z)-3-(2,4-Dimethyl-5-((5-pentafluorosulfanyl-2-oxoindolin-3-ylidene)methyl)-1H-pyrrol-3-yl)propanoic acid] |
| 0.018 µM |  | > 1 µM | 0.0031 µM | > 1 µM |  | > 1 µM |  |  | > 1 µM | > 1 µM |  | low nM potency | low nM potency | Cc1[nH]c(/C=C2\C(=O)Nc3cc(S(F)(F)(F)(F)F)ccc32)c(C)c1CCC(=O)O [Compound 14, (Z)-3-(2,4-Dimethyl-5-((6-pentafluorosulfanyl-2-oxoindolin-3-ylidene)methyl)-1H-pyrrol-3-yl)propanoic acid] |
